For the first assay, the target named is SARS-CoV-2 3CL-protease (Severe acute respiratory syndrome coronavirus 2 (2019-nCoV) (SARS-CoV-2), UniProt P0DTD1). Kind of assay: SARS-CoV-2 3C-like (3CL) protease fluorescence assay (FRET). Type of assay: biochemical.
Conditions: not given
`CC(C)C[C@@H](C(=O)N1C[C@]2(C[C@H]1C#N)C(=O)Nc1ccccc12)N(C)C(=O)c1cc2cc(F)cc(F)c2[nH]1` [Compound 68] gave an IC50 of less than 0.1 µM.

The same assay, now with this note: read-out: FRET IC50.
For `CC(C)C[C@@H](C(=O)N1C[C@]2(C[C@H]1C#N)C(=O)Nc1ccccc12)N(C)C(=O)c1cncc(C#N)c1` [Compound 60], the half-maximal inhibitory concentration (IC50) was less than 0.1 µM.

As for `CC(C)C[C@@H](C(=O)N1C[C@]2(C[C@H]1C#N)C(=O)Nc1ccccc12)N(C)C(=O)c1ccc(F)cc1Cl` [Compound 61], the IC50 is less than 0.1 µM.

Turning to `CC(C)C[C@@H](C(=O)N1C[C@]2(C[C@H]1C#N)C(=O)Nc1ccccc12)N(C)C(=O)c1cc(F)ccc1Cl` [Compound 62], the IC50 is less than 0.1 µM.

`CC(C)C[C@@H](C(=O)N1C[C@]2(C[C@H]1C#N)C(=O)Nc1ccccc12)N(C)C(=O)c1ccc(F)c(Cl)c1` [Compound 63]: the IC50 was less than 0.1 µM.

Consider `CC(C)C[C@@H](C(=O)N1C[C@]2(C[C@H]1C#N)C(=O)Nc1ccccc12)N(C)C(=O)c1c(Cl)cccc1Cl` [Compound 64], for which the half-maximal inhibitory concentration (IC50) is less than 0.1 µM.

As for `CC(C)C[C@@H](C(=O)N1C[C@]2(C[C@H]1C#N)C(=O)Nc1ccccc12)N(C)C(=O)c1cc2c(Cl)cccc2[nH]1` [Compound 65], the concentration for half-maximal inhibition (IC50) was less than 0.1 µM.

`CC(C)C[C@@H](C(=O)N1C[C@]2(C[C@H]1C#N)C(=O)Nc1ccccc12)N(C)C(=O)c1cc2c(Br)ccc(Cl)c2[nH]1` [Compound 66]: the concentration for half-maximal inhibition (IC50) was less than 0.1 µM.

Turning to `CC(C)C[C@@H](C(=O)N1C[C@]2(C[C@H]1C#N)C(=O)Nc1ccccc12)N(C)C(=O)c1cc2c(C#N)cccc2[nH]1` [Compound 67], the IC50 is less than 0.1 µM.

For the compound `CC(C)C[C@@H](C(=O)N1C[C@]2(C[C@H]1C#N)C(=O)Nc1ccccc12)N(C)C(=O)c1cc2cc(F)c(F)cc2[nH]1` [Compound 69], the IC50 is less than 0.1 µM.

Turning to `CC(C)C[C@@H](C(=O)N1C[C@]2(C[C@H]1C#N)C(=O)Nc1ccccc12)N(C)C(=O)c1cc2cc(F)ccc2[nH]1` [Compound 70], the IC50 was less than 0.1 µM.

On to `CC(C)C[C@@H](C(=O)N1C[C@]2(C[C@H]1C#N)C(=O)Nc1ccccc12)N(C)C(=O)c1cc2c(F)ccc(F)c2[nH]1` [Compound 71], for which the half-maximal inhibitory concentration (IC50) is less than 0.1 µM.

On to `CC(C)C[C@@H](C(=O)N1C[C@]2(C[C@H]1C#N)C(=O)Nc1ccccc12)N(C)C(=O)c1cc2c(Cl)cc(F)cc2[nH]1` [Compound 72], for which the IC50 was less than 0.1 µM.

As to `CC(C)C[C@@H](C(=O)N1C[C@]2(C[C@H]1C#N)C(=O)Nc1ccccc12)N(C)C(=O)c1cc2c(F)c(Cl)ccc2[nH]1` [Compound 73], the 50% inhibitory concentration (IC50) is less than 0.1 µM.

In the case of `CC(C)C[C@@H](C(=O)N1C[C@]2(C[C@H]1C#N)C(=O)Nc1ccccc12)N(C)C(=O)c1cc2c(Cl)cc(Cl)cc2[nH]1` [Compound 74], the half-maximal inhibitory concentration (IC50) is less than 0.1 µM.

For `CC(C)C[C@@H](C(=O)N1C[C@]2(C[C@H]1C#N)C(=O)Nc1ccccc12)N(C)C(=O)c1n[nH]c2ccccc12` [Compound 75], the IC50 was less than 0.1 µM.

For `CC(C)C[C@@H](C(=O)N1C[C@]2(C[C@H]1C#N)C(=O)Nc1ccccc12)N(C)C(=O)c1cc2cc(Cl)cc(Cl)c2[nH]1` [Compound 76], the 50% inhibitory concentration (IC50) is less than 0.1 µM.

On to `CC(C)C[C@@H](C(=O)N1C[C@]2(C[C@H]1C#N)C(=O)Nc1ccccc12)N(C)C(=O)c1[nH]c2ccc(F)cc2c1Cl` [Compound 77], for which the IC50 is 0.1 to 1 µM.

Regarding `CC(C)C[C@@H](C(=O)N1C[C@]2(C[C@H]1C#N)C(=O)Nc1ccccc12)N(C)C(=O)c1cc2ccccc2[nH]1` [Compound 78], the concentration for half-maximal inhibition (IC50) is less than 0.1 µM.

Regarding `CC(C)C[C@@H](C(=O)N1C[C@]2(C[C@H]1C#N)C(=O)Nc1ccccc12)N(C)C(=O)c1cc2c(Br)cccc2[nH]1` [Compound 79], the IC50 was less than 0.1 µM.

In the case of `CN(C(=O)c1cc2c(F)cccc2[nH]1)[C@@H](Cc1ccccc1)C(=O)N1C[C@]2(C[C@H]1C#N)C(=O)Nc1ccccc12` [Compound 80], the IC50 was less than 0.1 µM.

On to `CN(C(=O)c1cc2c(F)cc(F)cc2[nH]1)[C@@H](Cc1ccccc1)C(=O)N1C[C@]2(C[C@H]1C#N)C(=O)Nc1ccccc12` [Compound 81], for which the IC50 was less than 0.1 µM.

For `CC(C)C[C@@H](C(=O)N1C[C@]2(C[C@H]1C#N)C(=O)Nc1ccccc12)N(C)C(=O)c1cc2c(OC3CC3)cccc2[nH]1` [Compound 82], the IC50 is less than 0.1 µM.

With `CC(C)C[C@@H](C(=O)N1C[C@]2(C[C@H]1C#N)C(=O)Nc1ccccc12)N(C)C(=O)c1cc2c(F)c(F)c(F)cc2[nH]1` [Compound 83], the half-maximal inhibitory concentration (IC50) was less than 0.1 µM.

On to `CC(C)C[C@@H](C(=O)N1C[C@]2(C[C@H]1C#N)C(=O)Nc1ccccc12)N(C)C(=O)c1cc2cc(C(C)C)ccc2[nH]1` [Compound 84], for which the IC50 is less than 0.1 µM.

Take `COc1cccc2[nH]c(C(=O)N(C)[C@@H](CC(C)(C)C)C(=O)N3C[C@]4(C[C@H]3C#N)C(=O)Nc3ccccc34)cc12` [Compound 85]: the IC50 was less than 0.1 µM.

In the case of `CN(C(=O)c1cc2c(F)c(F)ccc2[nH]1)[C@@H](CC(C)(C)C)C(=O)N1C[C@]2(C[C@H]1C#N)C(=O)Nc1ccccc12` [Compound 86], the IC50 is less than 0.1 µM.

For `CN(C(=O)c1cc2c(F)cccc2[nH]1)[C@@H](CC(C)(C)C)C(=O)N1C[C@]2(C[C@H]1C#N)C(=O)Nc1ccccc12` [Compound 87], the IC50 is less than 0.1 µM.

Regarding `CN(C(=O)c1cc2c(F)cc(F)cc2[nH]1)[C@@H](CC(C)(C)C)C(=O)N1C[C@]2(C[C@H]1C#N)C(=O)Nc1ccccc12` [Compound 88], the half-inhibitory concentration (IC50) was less than 0.1 µM.

Take `CN(C(=O)OCc1ccccc1)[C@@H](CC1CCC1)C(=O)N1C[C@]2(C[C@H]1C#N)C(=O)Nc1ccccc12` [Compound 89]: the IC50 was less than 0.1 µM.

With `CCN(C(=O)OCc1ccccc1)[C@@H](CC(C)C)C(=O)N1C[C@]2(C[C@H]1C#N)C(=O)Nc1ccccc12` [Compound 90], the IC50 was less than 0.1 µM.

Regarding `CN(C(=O)c1cc2c(F)cc(F)cc2[nH]1)[C@@H](CC1CCC1)C(=O)N1C[C@]2(C[C@H]1C#N)C(=O)Nc1ccccc12` [Compound 91], the IC50 is less than 0.1 µM.

`COc1cccc2[nH]c(C(=O)N(C)[C@@H](CC3CCC3)C(=O)N3C[C@]4(C[C@H]3C#N)C(=O)Nc3ccccc34)cc12` [Compound 92]: the IC50 was less than 0.1 µM.

In the case of `CN(C(=O)c1cc2c(F)cccc2[nH]1)[C@@H](CC1CCC1)C(=O)N1C[C@]2(C[C@H]1C#N)C(=O)Nc1ccccc12` [Compound 93], the 50% inhibitory concentration (IC50) is less than 0.1 µM.

Regarding `CN(C(=O)c1cc2c(OC3CC3)cccc2[nH]1)[C@@H](CC1CCC1)C(=O)N1C[C@]2(C[C@H]1C#N)C(=O)Nc1ccccc12` [Compound 94], the IC50 was less than 0.1 µM.

As for `CCN(C(=O)c1cc2c(F)cccc2[nH]1)[C@@H](CC(C)C)C(=O)N1C[C@]2(C[C@H]1C#N)C(=O)Nc1ccccc12` [Compound 95], the 50% inhibitory concentration (IC50) is less than 0.1 µM.

Take `C=CCN(C(=O)OCc1ccccc1)[C@@H](CC(C)C)C(=O)N1C[C@]2(C[C@H]1C#N)C(=O)Nc1ccccc12` [Compound 96]: the half-maximal inhibitory concentration (IC50) was less than 0.1 µM.

Consider `CCCN(C(=O)OCc1ccccc1)[C@@H](CC(C)C)C(=O)N1C[C@]2(C[C@H]1C#N)C(=O)Nc1ccccc12` [Compound 97], for which the 50% inhibitory concentration (IC50) was less than 0.1 µM.

Turning to `CCCN(C(=O)c1cc2c(F)cccc2[nH]1)[C@@H](CC(C)C)C(=O)N1C[C@]2(C[C@H]1C#N)C(=O)Nc1ccccc12` [Compound 98], the IC50 is less than 0.1 µM.

Regarding `CCCN(C(=O)c1cc2c(F)cc(F)cc2[nH]1)[C@@H](CC(C)C)C(=O)N1C[C@]2(C[C@H]1C#N)C(=O)Nc1ccccc12` [Compound 99], the IC50 was less than 0.1 µM.

For `CC(C)CC[C@@H](C(=O)N1C[C@]2(C[C@H]1C#N)C(=O)Nc1ccccc12)N(C)C(=O)OCc1ccccc1` [Compound 100], the IC50 is less than 0.1 µM.

In the case of `CN(C(=O)OCc1ccccc1)[C@@H](CC(C)(C)F)C(=O)N1C[C@]2(C[C@H]1C#N)C(=O)Nc1ccccc12` [Compound 101], the IC50 was less than 0.1 µM.

Turning to `CN(C(=O)OCc1ccccc1)[C@@H](CC1CC1)C(=O)N1C[C@]2(C[C@H]1C#N)C(=O)Nc1ccccc12` [Compound 102], the IC50 was less than 0.1 µM.

In the case of `CC(C)CC[C@@H](C(=O)N1C[C@]2(C[C@H]1C#N)C(=O)Nc1ccccc12)N(C)C(=O)c1cc2c(F)cc(F)cc2[nH]1` [Compound 104], the half-inhibitory concentration (IC50) was less than 0.1 µM.

Take `COc1cccc2[nH]c(C(=O)N(C)[C@@H](CCC(C)C)C(=O)N3C[C@]4(C[C@H]3C#N)C(=O)Nc3ccccc34)cc12` [Compound 105]: the half-inhibitory concentration (IC50) is less than 0.1 µM.

As for `COc1cccc2[nH]c(C(=O)N(C)[C@@H](CC3CCCC3)C(=O)N3C[C@]4(C[C@H]3C#N)C(=O)Nc3ccccc34)cc12` [Compound 106], the IC50 was less than 0.1 µM.

Turning to `CN(C(=O)c1cc2c(F)cc(F)cc2[nH]1)[C@@H](CC1CCCC1)C(=O)N1C[C@]2(C[C@H]1C#N)C(=O)Nc1ccccc12` [Compound 107], the IC50 was less than 0.1 µM.

As for `CN(C(=O)c1cc2c(OC(F)(F)F)cccc2[nH]1)[C@@H](CC1CCCC1)C(=O)N1C[C@]2(C[C@H]1C#N)C(=O)Nc1ccccc12` [Compound 108], the IC50 is less than 0.1 µM.

Take `CN(C(=O)c1cc2c(F)cc(F)c(F)c2[nH]1)[C@@H](CC1CCCC1)C(=O)N1C[C@]2(C[C@H]1C#N)C(=O)Nc1ccccc12` [Compound 109]: the IC50 is less than 0.1 µM.

As for `CN(C(=O)c1cc2c(F)cccc2[nH]1)[C@@H](CC1CCCCC1)C(=O)N1C[C@]2(C[C@H]1C#N)C(=O)Nc1ccccc12` [Compound 110], the half-maximal inhibitory concentration (IC50) is less than 0.1 µM.

For the compound `CN(C(=O)c1cc2c(F)cc(F)cc2[nH]1)[C@@H](CC1CCCCC1)C(=O)N1C[C@]2(C[C@H]1C#N)C(=O)Nc1ccccc12` [Compound 111], the IC50 is less than 0.1 µM.

Consider `CN(C(=O)c1cc2c(F)c(F)ccc2[nH]1)[C@@H](CC1CCCCC1)C(=O)N1C[C@]2(C[C@H]1C#N)C(=O)Nc1ccccc12` [Compound 112], for which the IC50 is less than 0.1 µM.

Turning to `COc1cccc2[nH]c(C(=O)N(C)[C@@H](CC3CCCCC3)C(=O)N3C[C@]4(C[C@H]3C#N)C(=O)Nc3ccccc34)cc12` [Compound 113], the IC50 is less than 0.1 µM.

For `COc1cccc2[nH]c(C(=O)N(C)[C@@H](CC3CC3)C(=O)N3C[C@]4(C[C@H]3C#N)C(=O)Nc3ccccc34)cc12` [Compound 114], the half-inhibitory concentration (IC50) is less than 0.1 µM.

As for `CN(C(=O)c1cc2c(F)cc(F)cc2[nH]1)[C@@H](CC1CC1)C(=O)N1C[C@]2(C[C@H]1C#N)C(=O)Nc1ccccc12` [Compound 115], the IC50 is less than 0.1 µM.

What is called IC50 is the midpoint of a concentration-inhibition curve.

The record behind these values is patent publication US11352363B1, “Spiropyrrolidine derived antiviral agents” (Enanta Pharmaceuticals, Inc., priority 2020, dated 2022).
